# Results taken from US12421191B2, “3-hydroxyoxindole derivatives as CRHR2 antagonist” (RaQualia Pharma Inc., priority 2020, dated 2025).
# Molecular target: T1, human CRHR2-alpha (Homo sapiens, UniProt Q13324)
# T1 construct: host or cells: CHO-K1
# T1 sequence (Q13324 1-411): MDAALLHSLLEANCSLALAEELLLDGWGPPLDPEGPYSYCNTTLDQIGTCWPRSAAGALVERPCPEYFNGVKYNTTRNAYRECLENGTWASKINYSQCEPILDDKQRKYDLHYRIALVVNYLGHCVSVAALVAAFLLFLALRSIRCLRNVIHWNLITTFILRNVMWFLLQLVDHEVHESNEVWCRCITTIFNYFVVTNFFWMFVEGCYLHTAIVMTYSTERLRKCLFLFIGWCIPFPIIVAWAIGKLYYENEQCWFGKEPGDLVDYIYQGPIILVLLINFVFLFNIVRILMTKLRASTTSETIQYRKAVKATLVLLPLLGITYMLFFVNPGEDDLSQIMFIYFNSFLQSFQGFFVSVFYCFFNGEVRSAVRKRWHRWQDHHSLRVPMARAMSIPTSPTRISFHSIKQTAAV
# Assay: cAMP functional assay for human CRHR2 (LANCE Ultra TR-FRET)
# Assay type: cell-based
# Conditions: inhibition of cAMP production in CHO-K1 cells stably expressing human CRHR2-alpha, EC90 of human urocortin2 as agonist; read-out: IC50 against CRHR2
# Summary of the method: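 CHO-K1 cells stably expressing CRHR2-alpha, serum-starved 7 h and cryopreserved, preincubated with compound 30 min at 25° C in HBSS with 0.1% BSA, 0.5 mM IBMX, 5 mM Hepes pH 7.4. EC90 human urocortin2 added for 30 min at 25° C; cAMP read by TR-FRET; IC50 from percent-inhibition curves.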
row,Structure (SMILES),IC50 [nM]
1,"COc1ccc(C2(O)C(=O)N(C[C@H]3CC[C@H](NC(=O)c4cc(Cl)cnc4C(F)F)CC3)c3ccccc32)s1 (some centres unmarked) [Example 99, 5-chloro-2-(difluoromethyl)-N-((1r,4r)-4-((3-hydroxy-3-(5-methoxythiophen-2-yl)-2-oxoindolin-1-yl)methyl)cyclohexyl) nicotinamide]",< 200
2,"COc1cccc(C2(O)C(=O)N(C[C@H]3CC[C@H](NC(=O)c4cc(Cl)cnc4C(F)F)CC3)c3ccccc32)c1F (some centres unmarked) [Example 66, 5-chloro-2-(difluoromethyl)-N-((1r,4r)-4-((3-(2-fluoro-3-methoxyphenyl)-3-hydroxy-2-oxoindolin-1-yl)methyl)cyclohexyl) nicotinamide]",< 200
3,"O=C(N[C@H]1CC[C@H](CN2C(=O)C(O)(c3cccc(F)c3)c3ccccc32)CC1)c1cc(Cl)cnc1C(F)F (some centres unmarked) [Example 20, 5-chloro-2-(difluoromethyl)-N-((1r,4r)-4-((3-(3-fluorophenyl)-3-hydroxy-2-oxoindolin-1-yl)methyl)cyclohexyl) nicotinamide]",< 200
4,"COc1ccc(F)c(C2(O)C(=O)N(C[C@H]3CC[C@H](NC(=O)c4cc(Cl)cnc4C(F)(F)F)CC3)c3ccccc32)c1 (some centres unmarked) [Example 185, 5-chloro-N-((1r,4r)-4-((3-(2-fluoro-5-methoxyphenyl)-3-hydroxy-2-oxoindolin-1-yl)methyl)cyclohexyl)-2-(trifluoromethyl)nicotinamide]",< 200
5,"O=C(N[C@H]1CC[C@H](CN2C(=O)C(O)(c3ccccc3F)c3cccc(F)c32)CC1)c1cc(Cl)cnc1C(F)F (mixture of isomers) [Example 82, 5-chloro-2-(difluoromethyl)-N-((1r,4r)-4-((7-fluoro-3-(2-fluorophenyl)-3-hydroxy-2-oxoindolin-1-yl)methyl)cyclohexyl) nicotinamide]",< 200
6,"COc1cccc2c1C(O)(c1cccc(F)c1F)C(=O)N2C[C@H]1CC[C@H](NC(=O)c2cc(Cl)cnc2C(F)F)CC1 (some centres unmarked) [Example 158, 5-chloro-2-(difluoromethyl)-N-((1r,4r)-4-((3-(2,3-difluorophenyl)-3-hydroxy-4-methoxy-2-oxoindolin-1-yl)methyl)cyclohexyl) nicotinamide]",< 200
7,"O=C(N[C@H]1CC[C@H](CN2C(=O)C(O)(c3ccc(F)cn3)c3ccc(F)cc32)CC1)c1cc(Cl)cnc1C(F)F (some centres unmarked) [Example 79, 5-chloro-2-(difluoromethyl)-N-((1r,4r)-4-((6-fluoro-3-(5-fluoropyridin-2-yl)-3-hydroxy-2-oxoindolin-1-yl)methyl)cyclohexyl) nicotinamide]",< 200
8,"Cc1cccc(C2(O)C(=O)N(C[C@H]3CC[C@H](NC(=O)c4cc(Cl)cnc4C(F)F)CC3)c3ccccc32)c1 (some centres unmarked) [Example 49, 5-chloro-2-(difluoromethyl)-N-((1r,4r)-4-((3-hydroxy-2-oxo-3-(m-tolyl)indolin-1-yl)methyl)cyclohexyl) nicotinamide]",< 200
9,"O=C(N[C@H]1CC[C@H](CN2C(=O)C(O)(c3ccc(Cl)cn3)c3ccc(F)cc32)CC1)c1cc(Cl)cnc1C(F)F (some centres unmarked) [Example 119, 5-chloro-N-((1r,4r)-4-((3-(5-chloropyridin-2-yl)-6-fluoro-3-hydroxy-2-oxoindolin-1-yl)methyl)cyclohexyl)-2-(difluoromethyl)nicotinamide]",< 200
10,"O=C(N[C@H]1CC[C@H](CN2C(=O)C(O)(c3ccncc3F)c3ccccc32)CC1)c1cc(Cl)cnc1C(F)F (some centres unmarked) [Example 10, 5-chloro-2-(difluoromethyl)-N-((1r,4r)-4-((3-(3-fluoropyridin-4-yl)-3-hydroxy-2-oxoindolin-1-yl)methyl)cyclohexyl) nicotinamide]",< 200
11,"COc1ccc(C2(O)C(=O)N(C[C@H]3CC[C@H](NC(=O)c4cc(Cl)cnc4C(F)F)CC3)c3ccccc32)cc1 (some centres unmarked) [Example 2, 5-chloro-2-(difluoromethyl)-N-((1r,4r)-4-((3-hydroxy-3-(4-methoxyphenyl)-2-oxoindolin-1-yl)methyl)cyclohexyl) nicotinamide]",< 200
